This note sets out measurements from a melting point compilation (Tetko et al.; mined from patent text by program, amines drawn as free bases though some values may be those of a salt).

A value given as a limit tells only on which side of the number the result lay.

`O=C1NC(=O)c2c1c(-c1ccccc1Cl)cc1c2c2cc(O)ccc2n1CCS(=O)c1ncn[nH]1` (stereo not given): the melting point lay in the range of 237 to 242 °C.

For `Cc1cc(-c2cc(C(F)(F)F)nn2-c2ccc(S(N)(=O)=O)c(F)c2)ccc1-c1cscn1`, the melting point was in the range of 125 to 127 °C.

As to `COc1cc2nc(-c3n[nH]cc3NC(=O)N3CCCCC3)[nH]c2cc1Cl`, the melting point is more than 310 °C.

Consider `CN(C)c1ccc(NC(=O)N(C[C@@H]2CCC[C@H](CN(C(=O)Nc3ccc(N(C)C)cc3)C3CCCCCCC3)C2)C2CCCCCCC2)cc1`, for which the melting point was in the range of 147 to 149 °C.

The compound `COc1ccc(-c2nc3c(N)cccc3n2Cc2c(F)cccc2F)c(F)c1` displayed a melting point of 200 to 202 °C.

`BrCCc1c[nH]c2ccccc12`: the melting point was in the range of 57 to 60 °C.

As for `CN1C(=O)Nc2cc(Cl)c(Cl)cc2C1(O)C(=O)NC(N)=S` (stereo not given), the melting point lay within 225 to 228 °C.

Compound `COc1cc(Nc2nccc(-c3ccc(NC(C)=O)cc3)n2)cc(OC)c1OC` displayed a melting point of 239 °C.

With `COc1cc(COc2nn(-c3ccccc3)cc2/C=C/c2nnc(C)[nH]2)ccc1OCc1nc(-c2ccco2)oc1C`, the melting point was in the range of 165 to 166 °C.

`O=C(CCC(=O)N1CCC(c2ccc(Cl)cc2)CC1)c1ccc2c(c1)CCN(CCn1cccc1)CC2` yielded a melting point of 96 to 97 °C.

`O=c1[nH]c2cc(Br)c(F)c([N+](=O)[O-])c2[nH]c1=O` returned a melting point of 316 to 321 °C.

As to `O=C(NN1CCc2ccccc2C(Oc2ccc(C(F)(F)F)cc2)C1)C(F)(F)F` (stereo not given), the melting point fell in the range of 192 to 195 °C.

Take `CC(=O)OC[C@H]1O[C@@H]2[C@@H](Sc3ccc(Cl)cc3N2CCCN(C)C)[C@@H](OC(C)=O)[C@@H]1OC(C)=O`: the melting point fell in the range of 149 to 151 °C.

`NC(=O)c1ccccc1NC(=O)c1ccc(-n2nc(C(F)(F)F)cc2C(F)(F)F)cc1`: the melting point was 195 to 196 °C.

As for `Nc1nc(Cl)cnc1-c1cccc(Cl)c1Cl`, the melting point lay within 179 to 181 °C.

`COCC(C)Nc1cc(-c2ccnc(Nc3cccc(Cl)c3)n2)cc(Cl)n1` (stereo not given) showed a melting point of 128 to 129 °C.

Compound `COc1ccccc1Sc1ccc2c(c1)CCC1N(C)C(=O)CCC21C` (single isomer, unassigned; (+)) showed a melting point of 166 to 168 °C.

Compound `COc1cc(CNC(=O)c2oc(=O)c3ncccc3c2-c2ccc(C)cc2)cc(OC)c1OC` showed a melting point of 195 to 196 °C.

With `Cc1ccc(-n2ncc(C(=O)Nc3ccc(N4CCN(C5CCOCC5)CC4)c(C#N)c3)c2C)cc1`, the melting point came to 258 °C.

On to `CC1(C)CCC(C)(C)c2cc(CCCn3cccn3)c(/C=C/c3ccc(C(=O)O)cc3)cc21`, for which the melting point turned out to be 182 °C.

`CC1CC(=O)NN=C1c1ccc(NC(=O)C(C)OS(C)(=O)=O)cc1` (stereo not given) registered a melting point of 110 to 112 °C.

The compound `COc1cc2c(cc1OC)C(Cc1ccncc1)(Cc1ccncc1)CN=C2c1ccccc1` displayed a melting point of 168 to 169 °C.

Compound `C[C@@H]1SC(N)=N[C@H]1Cc1ccccc1` registered a melting point of 89 °C.

For the compound `Cc1cc(C)c2c(-c3ccc(C(C)C)cc3)csc2c1`, the melting point fell in the range of 83 to 84 °C.

Regarding `CCCCOCCOc1ccc(-c2ccc3c(c2)C=C(C(=O)Nc2ccc(SCc4ncon4)cc2)CCN3CC(C)C)cc1`, the melting point was 112 to 115 °C.

`COc1cc(C(=O)CS(=O)(=O)N(C)C)c(N)cc1Cl` came in with a melting point of 59 to 62 °C.

`COc1cc(-c2ncn(C)c2-c2scc(OC)c2OC)cc(OC)c1OC` returned a melting point of 142 to 143 °C.

In the case of `Cn1c(C(F)(F)F)cc(=O)n(-c2cc(OC(=O)Nc3cccc(C(F)(F)F)c3)c(Cl)cc2F)c1=O`, the melting point was in the range of 153 to 155 °C.

In turn, `COc1ccc2c(c1)c(CCNC(C)=O)cn2S(=O)(=O)c1ccccc1` came in with a melting point of 140 to 141 °C.

`O=C(O)CCc1oc(Oc2ccccc2)nc1-c1ccc(Cl)cc1` gave a melting point of 136 to 137 °C.

Consider `Nc1cnc2ccc(-c3ccccc3)cc2c1Nc1ccccc1Br`, for which the melting point is 174 to 177 °C.

As for `CC(C)(O)c1ccc(CC(=O)Nc2cccnc2Oc2cccnc2)cc1`, the melting point was in the range of 122 to 124 °C.

Regarding `CCN(CC)CCn1cc(C(=O)NCc2ccc(Cl)cc2)c(=O)c2cc(CCCO)sc21`, the melting point was in the range of 111 to 114 °C.

`CC1(C)C(=O)Nc2ccc(-c3cc(F)cc(C#N)c3)cc21` came in with a melting point of 231 to 232 °C.

For the compound `CCOP(=O)(OCC)C(c1ccccc1)c1ccccc1C(F)(F)F` (stereo not given), the melting point lay in the range of 127 to 130 °C.

With `N#CCC(O)(c1ccccc1C(F)(F)F)c1ccccc1C(F)(F)F`, the melting point fell in the range of 168 to 170 °C.

`N#CNC(=Nc1ccncc1)NCCOc1ccc(Cl)cc1`: the melting point lay within 174 to 177 °C.

In the case of `COc1ccc(CSC2=NC(c3cccc([N+](=O)[O-])c3)C(C(=O)O)=C(C)N2)cc1` (stereo not given), the melting point amounted to 90 °C.

In turn, `CN1C(=O)C(C(=O)Nc2ccc(Oc3ccc(C(F)(F)F)cn3)cc2)C(=O)N(C)C1=S` displayed a melting point of 156 to 158 °C.

Turning to `O=C(O)C[C@H]1C[C@H](C(=O)O)Nc2cc(Cl)cc(Cl)c21` (relative stereo), the melting point lay within 229 to 231 °C.

For `CN1CCSC1=C[N+](=O)[O-]`, the melting point lay in the range of 169 to 171 °C.

Turning to `N#Cc1cc2c(cc1O)OCC21C(=O)N(CC2CCCO2)c2ccccc21` (stereo not given), the melting point was 218 to 221 °C.

On to `CCOC(=O)C(NC(C)=O)(C(=O)OCC)[C@@H]1CC(=O)C[C@H]1N=[N+]=[N-]` (relative stereo), for which the melting point is 121 to 122 °C.

Consider `C[C@H](COc1ccc(F)cc1)Nc1nc(Cl)nc2c1ncn2[C@@H]1O[C@H](CO)[C@@H](O)[C@H]1O`, for which the melting point was in the range of 172 to 173 °C.

Turning to `CCCCCC(=O)c1c[nH]c2ccccc12`, the melting point was 153 to 154 °C.

Turning to `COc1cc(C=O)c(Br)c(Cl)c1OC`, the melting point fell in the range of 118 to 119 °C.

The compound `CCOC(=O)c1cn(C2CC2)c2c(C)c(N3CCN(Cc4ccccc4)C(C)C3)c(F)c(C)c2c1=O` (stereo not given) had a melting point of 128 to 129 °C.

Compound `Cc1nccn1-c1ccc(COc2cc(F)cc(C3(C(N)=S)CCOCC3)c2)cc1` yielded a melting point of 167 to 170 °C.

`COc1ccc(C2C(=O)OC3=CC(O)(OC(C)=O)C=CC3=C2C)c(OC)c1` (stereo not given) came in with a melting point of 146 to 148 °C.

In turn, `CC(C)(C)OC(=O)N(O)C(=O)[C@H](N)COCc1ccccc1` registered a melting point of 128 to 130 °C.

In turn, `CC(=O)OC1CCCC(n2c(Br)nc3cc(Cl)c(Cl)cc32)C1OC(C)=O` (stereo not given) displayed a melting point of 71 to 79 °C.

As to `CC1=C(CN2CC(C(=O)O)C2)CCc2cc(OCCCc3ccc(F)cc3)ccc21`, the melting point lay in the range of 154 to 155 °C.

With `Cc1cccc(C(=O)n2nc(Nc3cccc(OCC(=O)N4CCNCC4)c3)nc2N)c1`, the melting point was in the range of 169 to 171 °C.

For `CC(C(=O)N(C)C)n1cc(C#N)c(-c2ccccc2)n1` (stereo not given), the melting point lay within 143 to 146 °C.

The compound `Cc1cc(F)ccc1-n1c(CF)nc2ccc([N+](=O)[O-])cc2c1=O` had a melting point of 171 to 173 °C.

In the case of `N#Cc1nn(-c2c(Cl)cc(C(F)(F)F)cc2Cl)c(N)c1C1C=CCCCC1` (stereo not given), the melting point fell in the range of 158 to 159 °C.

For `C=CCC(CC=C)(CC=C)c1ccc(-c2nc3cc(C#N)c(C#N)cc3n2CCC)cc1`, the melting point lay in the range of 132 to 134 °C.

`O=C(NC1CCCCC1)NC1N=C(c2ccccc2F)c2ccccc2N(CC(=O)N2CC3CCC(CC3)C2)C1=O` (racemic) registered a melting point of 128 to 130 °C.

On to `Nc1cccc(F)c1O`, for which the melting point came to 115 °C.

`COc1nsc2nc3ccccc3n12`: the melting point lay in the range of 172 to 175 °C.

`CC(=O)Oc1cccc2c1CCNC2=O`: the melting point lay in the range of 189 to 193 °C.

`O=C(O)[C@H](Cc1ccccc1)Nc1c(NCc2ccccc2)c(=O)c1=O`: the melting point was in the range of 215 to 216 °C.

`CCNC(=O)n1nc(Oc2c(Cl)cc(C(F)(F)F)cc2Cl)cc1COC` returned a melting point of 106 to 108 °C.

In turn, `CCC(=O)OC1=C(c2nnc(-c3ccccc3)o2)N(C)S(=O)(=O)c2ccccc21` displayed a melting point of 143 to 146 °C.

Consider `N#Cc1ccc(C=CC(=O)c2ccccc2N)cc1`, for which the melting point lay within 126 to 128 °C.

In turn, `CCOC(=O)c1cc(-n2c(=O)c3c(n(C)c2=O)CCCC3)ccc1Cl` returned a melting point of 108 to 112 °C.

As to `CCOCC(=O)Nc1nc2ccccc2s1`, the melting point lay within 113 to 114 °C.

`OCc1cnc2cc(F)ccc2c1O` showed a melting point of 295 to 300 °C.

The compound `CCC(CC)O[C@@H]1C=C(C(=O)O)C[C@H](CC(O)CO)[C@H]1NC(C)=O` (stereo not given in full) gave a melting point of 189 to 190 °C.

As for `COc1ccc(Nc2nc(C)ncc2S(=O)(=O)c2ccc(OCc3ccccc3)cc2)c(C)n1`, the melting point was 160 to 165 °C.

`O=C1c2c(Br)cccc2-n2cnc(C(=O)n3ccnc3)c2[C@@H]2CCCN12` returned a melting point of 215 to 217 °C.

In turn, `CCc1noc(-c2cc3c4cc(S(=O)(=O)N(C)C)ccc4n(CCCCl)c3cn2)n1` displayed a melting point of 223 to 224 °C.

`CS(=O)(=O)Nc1nccc(Oc2ccc3c(C(=O)Nc4ccc(F)c(C(F)(F)F)c4)cccc3c2)n1` showed a melting point of 246 °C.

The compound `Cc1cnc2c(C(N)=O)cnn2c1-c1cccc(C(F)(F)F)c1` showed a melting point of 237 to 239 °C.

`CNC(=O)C(=Cc1cccc(-c2ccc(C)c(C)c2)c1)NC(C)=O` came in with a melting point of 224 °C.

On to `CCCCCCCCCCCCCCCCCCOCC(O)Cn1cnc2c(N)ncnc21` (stereo not given), for which the melting point was in the range of 151 to 152 °C.

In turn, `CC1=NC(=NO)SC1(C)C` yielded a melting point of 151 to 153 °C.

The compound `Clc1cccc(NC2=Nc3ccc(Cl)cc3CS2)c1` showed a melting point of 174 to 175 °C.

Compound `COc1ccc2cc(C(=O)O)ccc2n1` gave a melting point of 220 to 222 °C.

In the case of `O=C(Nc1ccc(C(=O)N2Cc3ccccc3Sc3ccccc32)cc1)c1ccc(Cl)cc1Cl`, the melting point was in the range of 112 to 115 °C.

`C=CCO/N=C(/C(=O)OCC)c1ccc(OCCOc2ccc3ccccc3c2)s1` showed a melting point of 75 to 77 °C.

`CC1CCc2[nH]c3ccc(Br)cc3c2C1` (stereo not given) displayed a melting point of 108 to 110 °C.

Compound `Cc1cccc2c1nc(COc1ccc(Cl)cc1)n2CCC(Cc1ccccc1)C(=O)NCCCN1CCCCC1` (stereo not given) gave a melting point of 91 to 93 °C.

`C1=NNC(c2ccccc2)c2ccccc21` (stereo not given) displayed a melting point of 79 °C.

Regarding `COc1ccncc1-c1nc2c(N[C@H]3[C@@H](C(N)=O)[C@@H]4C=C[C@H]3C4)c(Br)cnc2[nH]1`, the melting point was found to be 160 °C.

One may read the melting point as the temperature, or range, at which the solid turns liquid.
